Data from patent publication US20140179609A1, “Whey protein hydrolysate containing tryptophan peptide consisting of alpha lactalbumin and the use thereof” (Technische Universität Dresden, priority 2008, published 2014).
Where a SMILES comes first, the peptide text is derived from it.

T1: ACE (Oryctolagus cuniculus, UniProt P12822)
T1 construct: The employed ACE is the rabbit lung enzyme obtained from Sigma-Aldrich; purchased Sigma-Aldrich; host or cells: rabbit lung (tissue-derived enzyme)
T1 sequence (P12822 34-1310): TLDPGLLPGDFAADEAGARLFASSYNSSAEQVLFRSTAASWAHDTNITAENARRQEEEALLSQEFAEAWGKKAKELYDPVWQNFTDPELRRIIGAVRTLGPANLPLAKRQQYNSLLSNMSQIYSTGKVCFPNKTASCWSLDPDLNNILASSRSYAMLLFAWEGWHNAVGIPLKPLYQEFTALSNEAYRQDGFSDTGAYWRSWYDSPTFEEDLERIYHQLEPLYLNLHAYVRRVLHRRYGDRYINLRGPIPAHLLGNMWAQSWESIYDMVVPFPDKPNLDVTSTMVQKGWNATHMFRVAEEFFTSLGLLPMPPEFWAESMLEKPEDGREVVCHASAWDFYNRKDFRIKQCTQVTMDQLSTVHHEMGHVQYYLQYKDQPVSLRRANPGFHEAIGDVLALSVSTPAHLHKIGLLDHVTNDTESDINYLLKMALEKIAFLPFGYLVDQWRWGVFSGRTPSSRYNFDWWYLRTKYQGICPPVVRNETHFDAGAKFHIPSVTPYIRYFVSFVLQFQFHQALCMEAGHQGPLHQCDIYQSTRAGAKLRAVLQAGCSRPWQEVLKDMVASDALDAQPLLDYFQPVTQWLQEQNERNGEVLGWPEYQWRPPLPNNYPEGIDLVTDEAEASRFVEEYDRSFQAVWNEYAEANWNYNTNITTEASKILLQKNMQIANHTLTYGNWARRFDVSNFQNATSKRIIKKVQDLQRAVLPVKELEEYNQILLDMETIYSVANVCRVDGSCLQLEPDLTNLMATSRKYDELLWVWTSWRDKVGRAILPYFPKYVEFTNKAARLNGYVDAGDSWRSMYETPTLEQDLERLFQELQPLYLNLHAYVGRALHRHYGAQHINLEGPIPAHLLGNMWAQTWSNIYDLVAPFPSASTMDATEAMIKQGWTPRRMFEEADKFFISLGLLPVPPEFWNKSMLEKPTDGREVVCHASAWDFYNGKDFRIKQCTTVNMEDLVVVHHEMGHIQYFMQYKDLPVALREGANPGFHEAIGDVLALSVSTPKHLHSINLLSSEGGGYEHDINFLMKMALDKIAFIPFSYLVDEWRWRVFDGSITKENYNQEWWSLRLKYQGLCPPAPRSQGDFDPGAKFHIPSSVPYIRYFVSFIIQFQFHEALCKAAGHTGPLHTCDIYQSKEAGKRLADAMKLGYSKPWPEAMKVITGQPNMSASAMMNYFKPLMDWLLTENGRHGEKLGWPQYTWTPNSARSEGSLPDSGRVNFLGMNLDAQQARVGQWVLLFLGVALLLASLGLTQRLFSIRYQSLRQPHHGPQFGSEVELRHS


Key:
[1] = system: proteases; test: Stability of the dipeptides during enzymatic hydrolysis of whey protein (detection by GPC / LC-ESI-TOF-MS); settings: hydrolysis with trypsin, Alcalase, Flavourzyme; found by GPC in all hydrolysates after three hours
Experimental: The whey protein Milei60 was hydrolyzed enzymatically by proteolytically acting enzymes, i.e., trypsin obtained from porcine pancreas (EC 3.4.21.4) as well as two further proteases, i.e., Alcalase® (Bacillus licheniformis) and Flavourzyme (Aspergillus oryzae). The following Table illustrates how hydrolysis is carried out.
The release of dipeptides Trp-Leu and Ile-Trp according to the invention during the course of hydrolysis was analyzed by GPC and LC-ESI-TOF-MS (liquid chromatography/electrospray ionization time of flight mass spectrometry).
In GPC the identification of the dipeptides was carried out by comparison with peaks of the standard peptides that were carried along.
The strongly ACE-inhibiting peptide Ile-Trp was detected unequivocally in the hydrolysates after a hydrolysis duration of three hours. Therefore, it appears to be accessible for the proteases only after a certain time has lapsed; this is true also for Trp-Leu.

[2] = molecular target: T1, ACE; test: ACE activity test (substrate HHL, hippuric acid quantified by RP HPLC); assay type: biochemical, rabbit; settings: for IC50: dipeptides from Bachem, test as in Example 2, read-out: IC50 [μM] ACE-inhibiting activity; for ACE inhibiting action (in words): samples heat-treated at 100° C. for 10 minutes
Experimental: The determination of the ACE activity of the protein hydrolysates was carried out similar to a test disclosed by Cushman and Cheung in […] (Cushman, D. W. and Cheung, H.-S. Spectrophotometric Assay and Properties of Angiotensin-Converting Enzyme of Rabbit Lung, Biochemical Pharmacology, 1971, 20, 1637-1648). However, several modifications were carried out. The employed ACE is the rabbit lung enzyme obtained from Sigma-Aldrich. As a substrate N-benzoyl-glycyl-L-histidyl-L-leucin (HHL) was used which is considered to be analog to the natural substrate angiotensin I. ACE catalyzes the hydrolysis to L-histidyl-L-leucin (HL) and N-benzoyl-glycin (hippuric acid):
Since hippuric acid is UV-active (λmax=228 nm), it is possible, based on its contents determined by RP HPLC, to define the conversion rate and thus the enzyme activity. By means of a concentration series of the respective inhibitor solution, the inhibitor concentration can be determined that is required for lowering the ACE activity by one half (IC50).
In each series of measurements two enzyme blind values were carried along in which, in place of the sample solution, the same volume of double distilled water had been added. The blind value corresponds to 100% ACE activity. Calculation of the IC50 values was done by the software program SigmaPlot 5.0.
In addition to the samples that had been incubated for different lengths of time, also a blind value sample was analyzed that contained all employed enzymes and the whey protein powder in the same concentration as the hydrolysis samples. However, after addition of all substances, the enzymatic action was inactivated immediately by 10-minute incubation at 100° C. Also, possible effects by individual compounds on ACE were tested. For this purpose, the enzymes were inactivated and individually tested with respect to possible ACE inhibiting action. The same procedure was carried out with the whey protein powder. Whey protein powder that was not heat-treated was also tested with respect to its inhibiting action. For the determination of the IC50 value of the hydrolysis samples several concentrations were used in the ACE activity test. A protein concentration of 1000 mg protein/I was used as the basis. This parent solution was diluted 1:2, 1:5, 1:10, 1:20, 1:50, 1:100 and all solutions were tested with respect to their ACE inhibiting effect. Evaluation was also done with SigmaPlot 5.0.
In Table 12 the parameters measured by RP HPLC and LC-ESI-TOF-MS for the dipeptides according to the invention are listed. The Table contains also the IC50 values that were obtained for the dipeptides. […]

[3] = system: spontaneously hypertensive rats; test: Feeding tests on spontaneously hypertensive rats; assay type: in vivo, rat
Source text: Administered was a preparation that contained the peptides according to the invention (PP), feed with intact whey protein (MP) as well as, as a control, a rat feed with captopril, a known ACE inhibiting agent as well as a placebo.
The basic importance of whey protein hydrolysates containing the tryptophan-containing peptides of the present invention for affecting the arterial blood pressure was objectified in animal tests on spontaneously hypertensive rats (FIG. 4). Here, the whey protein hydrolysate in comparison to a control diet caused a significant lowering of systolic blood pressure by 21±6 mm Hg after 7 weeks. Feeding captopril (ACE inhibitor of the first generation) lowered over the same time period the blood pressure by 28±7 mm Hg.
This implies comprehensive heart-protective and vessel-protective effects caused by the whey protein hydrolysate.

Molecule	stability with respect to further digestion to the amino acids [1]	IC50 [2]	ACE inhibiting action (in words) [2]	further results
CC[C@H](C)[C@H](N)C(=O)N[C@@H](Cc1c[nH]c2ccccc12)C(=O)O [Ile-Trp]	stable with respect to further digestion to the amino acids	0.7 µM	–	–
C[C@H](CS)C(=O)N1CCC[C@H]1C(=O)O [captopril]	–	–	–	lowering of systolic blood pressure ([3]; after 7 weeks, in comparison to a control diet): 28±7 mm Hg; reduced heart mass ([3]; in comparison to controls): 16%
CC(C)C[C@H](NC(=O)[C@@H](N)Cc1c[nH]c2ccccc12)C(=O)O [Trp-Leu] (H-Trp-Leu-OH; N-terminus and C-terminus assumed)	stable with respect to further digestion to the amino acids	10 µM	–	–
trypsin: trypsin obtained from porcine pancreas (EC 3.4.21.4), heat-inactivated hydrolysis enzyme (protein, UniProt P00761 9-231, looked up) Trypsin: IVGGYTCAANSIPYQVSLNSGSHFCGGSLINSQWVVSAAHCYKSRIQVRLGEHNIDVLEGNEQFINAAKIITHPNFNGNTLDNDIMLIKLSSPATLNSRVATVSLPRSCAAAGTECLISGWGNTKSSGSSYPSLLQCLKAPVLSDSSCKSSYPGQITGNMICVGFLEGGKDSCQGDSGGPVVCNGQLQGIVSWGYGCAQKNKPGVYTKVCNYVNWIQQTIAAN	–	–	neither the inactivated enzymes, individually or as a mixture, nor the protein had an effect on ACE	–
Alcalase: protease from Bacillus licheniformis, heat-inactivated hydrolysis enzyme (protein, UniProt P00780 106-379, looked up) Subtilisin Carlsberg: AQTVPYGIPLIKADKVQAQGFKGANVKVAVLDTGIQASHPDLNVVGGASFVAGEAYNTDGNGHGTHVAGTVAALDNTTGVLGVAPSVSLYAVKVLNSSGSGSYSGIVSGIEWATTNGMDVINMSLGGASGSTAMKQAVDNAYAKGVVVVAAAGNSGSSGNTNTIGYPAKYDSVIAVGAVDSNSNRASFSSVGAELEVMAPGAGVYSTYPTNTYATLNGTSMASPHVAGAAALILSKHPNLSASQVRNRLSSTATYLGSSFYYGKGLINVEAAAQ	–	–	neither the inactivated enzymes, individually or as a mixture, nor the protein had an effect on ACE	–
